# Measurements from patent US8754054B2, “Antibacterial compounds, methods of making them, and uses thereof” (Albany Molecular Research, Inc., priority 2010, dated 2014).
# Test system: MRSA 43300
# Experiment: Antibacterial activity, NCCLS dilution method (Table 9)
# Type: cell-based, S. aureus
# Conditions: Staphylococcus aureus, MRSA, MRSA 43300; dilution method; labels marked a tested as a mixture of diastereomers; read-out: MRSA 43300 MIC
# Text: NCCLS standards for antimicrobial susceptibility testing using the dilution method were followed. See: Performance Standards for Antimicrobial Susceptibility Testing; Fourteenth Informational Supplement. NCCLS Document M100-S14 (ISBN 1-56238-516-X), 2004. NCCLS, 940 West Valley Road, Suite 1400, Wayne, Pa. 19087-1898 USA, 2004; Methods for Dilution Antimicrobial Susceptibility Tests for Bacteria that Grow Aerobically; Approved Standard—Sixth Edition. NCCLS document M7-A6 (IBSBN 1-56238-486-4), NCCLS, 940 West Valley Road, Suite 1400, Wayne, Pa. 19087-1898 USA, 2003, which are hereby incorporated by reference in their entirety.
row,Compound,MIC
1,"COC(=O)c1c(C)cc2c(c1O)[C@]1(O)C(=O)c3cc4c(c(O)c3C(=O)[C@]1(OC)[C@H](O)C2)C(=O)C=C(N[C@H]1O[C@@H](C)[C@H](OC)[C@@H](O)[C@H]1OC)C4(O)c1ccccc1 (single isomer, unassigned) [Example 56]",8 µg/mL
2,"COC(=O)c1c(C)cc2c(c1O)[C@]1(O)C(=O)c3cc4c(c(O)c3C(=O)[C@]1(OC)[C@H](O)C2)C(=O)C=C(N[C@H]1O[C@@H](C)[C@H](OC)[C@@H](O)[C@H]1OC)C4(O)c1ccc(F)cc1 (single isomer, unassigned) [Example 58]",8 to 16 µg/mL
3,"COC(=O)c1c(C)cc2c(c1O)[C@]1(O)C(=O)c3cc4c(c(O)c3C(=O)[C@]1(OC)[C@H](O)C2)C(=O)C=C(N[C@H]1O[C@@H](C)[C@H](OC)[C@@H](O)[C@H]1OC)C4=O [Example 2, (6R,6aS,14aR)-methyl 1,6,8,14a-tetrahydroxy-11-((2S,3R,4R,5R,6S)-4-hydroxy-3,5-dimethoxy-6-methyltetrahydro-2H-pyran-2-ylamino)-6a-methoxy-3-methyl-7,9,12,14-tetraoxo-5,6,6a,7,9,12,14,14a-octahydrobenzo[a]tetracene-2-carboxylate]",0.008 µg/mL
4,"COC(=O)c1c(C)cc2c(c1OC)[C@]1(O)C(=O)c3cc4c(c(O)c3C(=O)[C@]1(OC)[C@H](O)C2)C(=O)C=C(N[C@H]1O[C@@H](C)[C@H](OC)[C@@H](O)[C@H]1OC)C4=O [Example 4, (6R,6aS,14aR)-Methyl 6,8,14a-trihydroxy-11-((2S,3R,4R,5R,6S)-4-hydroxy-3,5-dimethoxy-6-methyltetrahydro-2H-pyran-2-ylamino)-1,6a-dimethoxy-3-methyl-7,9,12,14-tetraoxo-5,6,6a,7,9,12,14,14a-octahydrobenzo[a]tetracene-2-carboxylate]",0.06 to 0.12 µg/mL
5,"COC(=O)COc1c(C(=O)OC)c(C)cc2c1[C@]1(O)C(=O)c3cc4c(c(O)c3C(=O)[C@]1(OC)[C@H](O)C2)C(=O)C=C(N[C@H]1O[C@@H](C)[C@H](OC)[C@@H](O)[C@H]1OC)C4=O [Example 6, (6R,6aS,14aR)-Methyl 6,8,14a-trihydroxy-11-((2S,3R,4R,5R,6S)-4-hydroxy-3,5-dimethoxy-6-methyltetrahydro-2H-pyran-2-ylamino)-6a-methoxy-1-(2-methoxy-2-oxoethoxy)-3-methyl-7,9,12,14-tetraoxo-5,6,6a,7,9,12,14,14a-octahydrobenzo[a]tetracene-2-carboxylate]",0.12 µg/mL
6,"COC(=O)c1c(C)cc2c(c1OCc1ccccc1)[C@]1(O)C(=O)c3cc4c(c(O)c3C(=O)[C@]1(OC)[C@H](O)C2)C(=O)C=C(N[C@H]1O[C@@H](C)[C@H](OC)[C@@H](O)[C@H]1OC)C4=O [Example 7, (6R,6aS,14aR)-Methyl 1-(benzyloxy)-6,8,14a-trihydroxy-11-((2S,3R,4R,5R,6S)-4-hydroxy-3,5-dimethoxy-6-methyltetrahydro-2H-pyran-2-ylamino)-6a-methoxy-3-methyl-7,9,12,14-tetraoxo-5,6,6a,7,9,12,14,14a-octahydrobenzo[a]tetracene-2-carboxylate]",0.12 µg/mL
7,"COC(=O)c1c(C)cc2c(c1OCC(=O)OCc1ccccc1)[C@]1(O)C(=O)c3cc4c(c(O)c3C(=O)[C@]1(OC)[C@H](O)C2)C(=O)C=C(N[C@H]1O[C@@H](C)[C@H](OC)[C@@H](O)[C@H]1OC)C4=O [Example 8, (6R,6aS,14aR)-Methyl 1-(2-(benzyloxy)-2-oxoethoxy)-6,8,14a-trihydroxy-11-((2S,3R,4R,5R,6S)-4-hydroxy-3,5-dimethoxy-6-methyltetrahydro-2H-pyran-2-ylamino)-6a-methoxy-3-methyl-7,9,12,14-tetraoxo-5,6,6a,7,9,12,14,14a-octahydrobenzo[a]tetracene-2-carboxylate]",1 µg/mL
8,"COC(=O)c1c(C)cc2c(c1OCC(=O)O)[C@]1(O)C(=O)c3cc4c(c(O)c3C(=O)[C@]1(OC)[C@H](O)C2)C(=O)C=C(NC1O[C@@H](C)[C@H](OC)[C@@H](O)[C@H]1OC)C4=O (stereo partly drawn) [Example 9, 2-((6R,6aS,14aR)-6,8,14a-Trihydroxy-11-((3R,4R,5R,6S)-4-hydroxy-3,5-dimethoxy-6-methyltetrahydro-2H-pyran-2-ylamino)-6a-methoxy-2-(methoxycarbonyl)-3-methyl-7,9,12,14-tetraoxo-5,6,6a,7,9,12,14,14a-octahydrobenzo[a]tetracen-1-yloxy)acetic acid]",32 µg/mL
9,"COC(=O)c1c(C)cc2c(c1OCC(N)=O)[C@]1(O)C(=O)c3cc4c(c(O)c3C(=O)[C@]1(OC)[C@H](O)C2)C(=O)C=C(NC1O[C@@H](C)[C@H](OC)[C@@H](O)[C@H]1OC)C4=O (stereo partly drawn) [Example 10, (6R,6aS,14aR)-Methyl 1-(2-amino-2-oxoethoxy)-6,8,14a-trihydroxy-11-((3R,4R,5R,6S)-4-hydroxy-3,5-dimethoxy-6-methyltetrahydro-2H-pyran-2-ylamino)-6a-methoxy-3-methyl-7,9,12,14-tetraoxo-5,6,6a,7,9,12,14,14a-octahydrobenzo[a]tetracene-2-carboxylate]",32 µg/mL
10,"COC(=O)c1c(C)cc2c(c1OCc1cccnc1)[C@]1(O)C(=O)c3cc4c(c(O)c3C(=O)[C@]1(OC)[C@H](O)C2)C(=O)C=C(N[C@H]1O[C@@H](C)[C@H](OC)[C@@H](O)[C@H]1OC)C4=O.Cl [Example 11, (6R,6aS,14aR)-Methyl 6,8,14a-trihydroxy-11-((2S,3R,4R,5R,6S)-4-hydroxy-3,5-dimethoxy-6-methyltetrahydro-2H-pyran-2-ylamino)-6a-methoxy-3-methyl-7,9,12,14-tetraoxo-1-(pyridin-3-ylmethoxy)-5,6,6a,7,9,12,14,14a-octahydrobenzo[a]tetracene-2-carboxylate hydrochloride]",0.12 to 0.25 µg/mL
11,"COC(=O)c1c(C)cc2c(c1OCC(=O)N1CCCCC1)[C@]1(O)C(=O)c3cc4c(c(O)c3C(=O)[C@]1(OC)[C@H](O)C2)C(=O)C=C(N[C@H]1O[C@@H](C)[C@H](OC)[C@@H](O)[C@H]1OC)C4=O [Example 12, (6R,6aS,14aR)-Methyl 6,8,14a-trihydroxy-11-((2S,3R,4R,5R,6S)-4-hydroxy-3,5-dimethoxy-6-methyltetrahydro-2H-pyran-2-ylamino)-6a-methoxy-3-methyl-7,9,12,14-tetraoxo-1-(2-oxo-2-(piperidin-1-yl)ethoxy)-5,6,6a,7,9,12,14,14a-octahydrobenzo[a]tetracene-2-carboxylate]",0.25 to 1 µg/mL
12,"CO[C@@H]1[C@@H](O)[C@@H](OC)[C@@H](NC2=CC(=O)c3c(cc4c(c3O)C(=O)[C@]3(OC)[C@H](O)Cc5cc(C)c(C(=O)O)c(O)c5[C@]3(O)C4=O)C2=O)O[C@H]1C [Example 13, (6R,6aS,14aR)-1,6,8,14a-Tetrahydroxy-11-((2S,3R,4R,5R,6S)-4-hydroxy-3,5-dimethoxy-6-methyltetrahydro-2H-pyran-2-ylamino)-6a-methoxy-3-methyl-7,9,12,14-tetraoxo-5,6,6a,7,9,12,14,14a-octahydrobenzo[a]tetracene-2-carboxylic acid]",32 µg/mL
13,"CO[C@@H]1[C@@H](O)[C@@H](OC)[C@@H](NC2=CC(=O)c3c(cc4c(c3O)C(=O)[C@]3(OC)[C@H](O)Cc5cc(C)c(C(N)=O)c(O)c5[C@]3(O)C4=O)C2=O)O[C@H]1C [Example 20, (6R,6aS,14aR)-1,6,8,14a-Tetrahydroxy-11-((2S,3R,4R,5R,6S)-4-hydroxy-3,5-dimethoxy-6-methyltetrahydro-2H-pyran-2-ylamino)-6a-methoxy-3-methyl-7,9,12,14-tetraoxo-5,6,6a,7,9,12,14,14a-octahydrobenzo[a]tetracene-2-carboxamide]",2 µg/mL
14,"COc1ccc(CNC(=O)c2c(C)cc3c(c2O)[C@]2(O)C(=O)c4cc5c(c(O)c4C(=O)[C@]2(OC)[C@H](O)C3)C(=O)C=C(N[C@H]2O[C@@H](C)[C@H](OC)[C@@H](O)[C@H]2OC)C5=O)cc1 [Example 28, (6R,6aS,14aR)-1,6,8,14a-Tetrahydroxy-11-((3R,4R,5R,6S)-4-hydroxy-3,5-dimethoxy-6-methyltetrahydro-2H-pyran-2-ylamino)-6a-methoxy-N-(4-methoxybenzyl)-3-methyl-7,9-12-14-tetraoxo-5,6,6a,7,9,12,14,14a-octahydrobenzo[a]tetracene-2-carboxamide]",0.5 µg/mL
15,"CO[C@@H]1[C@@H](O)[C@@H](OC)[C@@H](NC2=CC(=O)c3c(cc4c(c3O)C(=O)[C@]3(OC)[C@H](O)Cc5cc(C)c(C(=O)OCCCc6ccccc6)c(O)c5[C@]3(O)C4=O)C2=O)O[C@H]1C [Example 33, (6R,6aS,14aR)-3-Phenylpropyl 1,6,8,14a-tetrahydroxy-11-((2S,3R,4R,5R,6S)-4-hydroxy-3,5-dimethoxy-6-methyltetrahydro-2H-pyran-2-ylamino)-6a-methoxy-3-methyl-7,9,12,14-tetraoxo-5,6,6a,7,9,12,14,14a-octahydrobenzo[a]tetracene-2-carboxylate]",1 to 2 µg/mL
16,"CCOC(=O)c1c(C)cc2c(c1O)[C@]1(O)C(=O)c3cc4c(c(O)c3C(=O)[C@]1(OC)[C@H](O)C2)C(=O)C=C(N[C@H]1O[C@@H](C)[C@H](OC)[C@@H](O)[C@H]1OC)C4=O [Example 34, (6R,6aS,14aR)-Ethyl 1,6,8,14a-tetrahydroxy-11-((2S,3R,4R,5R,6S)-4-hydroxy-3,5-dimethoxy-6-methyltetrahydro-2H-pyran-2-ylamino)-6a-methoxy-3-methyl-7,9,12,14-tetraoxo-5,6,6a,7,9,12,14,14a-octahydrobenzo[a]tetracene-2-carboxylate]",0.008 to 0.016 µg/mL
17,CO[C@@H]1[C@@H](O)[C@@H](OC)[C@@H](NC2=CC(=O)c3c(cc4c(c3O)C(=O)[C@]3(OC)[C@H](O)Cc5cc(C)c(C(=O)OCC(C)C)c(O)c5[C@]3(O)C4=O)C2=O)O[C@H]1C [Example 36],0.12 µg/mL
